Results: ChEMBL document CHEMBL4184118, “Carbazole-containing amides and ureas: Discovery of cryptochrome modulators as antihyperglycemic agents” (Bioorg Med Chem Lett, 2018)
pEC50: −log10 of the molar value. Converted amounts (≈) assume the structure as drawn.

How the values were obtained:
[1] = target: T1, CRY2/PER2 (Homo sapiens, UniProt O15055+Q49AN0); assay: Modulation activity at CRY2/PER2 in human U2OS cells harboring per2-dLuc assessed as activation of per2 activity measured every 100 mins for 5 days by luciferase reporter gene assay; type: cell-based
T1 sequence (O15055 whole entry): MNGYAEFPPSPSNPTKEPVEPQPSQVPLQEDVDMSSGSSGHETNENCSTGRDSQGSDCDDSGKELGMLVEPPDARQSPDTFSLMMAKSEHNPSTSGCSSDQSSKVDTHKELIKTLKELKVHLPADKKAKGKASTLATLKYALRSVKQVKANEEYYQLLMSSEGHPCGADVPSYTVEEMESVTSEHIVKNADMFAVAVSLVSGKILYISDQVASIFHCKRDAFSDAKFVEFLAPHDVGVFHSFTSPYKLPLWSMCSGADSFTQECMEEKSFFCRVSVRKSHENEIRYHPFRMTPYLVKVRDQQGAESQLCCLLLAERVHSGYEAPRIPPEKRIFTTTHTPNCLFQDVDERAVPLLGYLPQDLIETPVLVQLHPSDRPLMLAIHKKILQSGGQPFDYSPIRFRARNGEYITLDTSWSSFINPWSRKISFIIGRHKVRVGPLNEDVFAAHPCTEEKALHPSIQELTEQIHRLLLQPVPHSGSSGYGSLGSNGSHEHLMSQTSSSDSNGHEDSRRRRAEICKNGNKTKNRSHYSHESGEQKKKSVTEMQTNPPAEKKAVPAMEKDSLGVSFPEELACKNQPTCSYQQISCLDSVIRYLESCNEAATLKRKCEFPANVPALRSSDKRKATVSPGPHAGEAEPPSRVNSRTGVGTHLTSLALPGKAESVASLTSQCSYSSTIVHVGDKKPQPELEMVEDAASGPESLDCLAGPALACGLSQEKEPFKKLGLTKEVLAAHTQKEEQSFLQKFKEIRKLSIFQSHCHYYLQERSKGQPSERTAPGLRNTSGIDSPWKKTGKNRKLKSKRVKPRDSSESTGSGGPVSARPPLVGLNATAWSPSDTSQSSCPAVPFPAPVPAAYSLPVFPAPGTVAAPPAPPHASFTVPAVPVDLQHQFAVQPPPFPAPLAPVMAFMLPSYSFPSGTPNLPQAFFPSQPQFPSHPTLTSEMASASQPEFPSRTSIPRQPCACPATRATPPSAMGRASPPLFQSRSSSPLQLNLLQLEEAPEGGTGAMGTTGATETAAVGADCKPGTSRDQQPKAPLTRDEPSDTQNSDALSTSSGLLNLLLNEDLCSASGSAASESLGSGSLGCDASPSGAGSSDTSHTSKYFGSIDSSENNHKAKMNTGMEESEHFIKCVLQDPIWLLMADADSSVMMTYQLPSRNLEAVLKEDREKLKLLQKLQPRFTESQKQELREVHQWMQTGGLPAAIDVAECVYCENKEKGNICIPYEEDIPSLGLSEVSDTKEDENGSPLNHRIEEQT
T1 sequence (Q49AN0 whole entry): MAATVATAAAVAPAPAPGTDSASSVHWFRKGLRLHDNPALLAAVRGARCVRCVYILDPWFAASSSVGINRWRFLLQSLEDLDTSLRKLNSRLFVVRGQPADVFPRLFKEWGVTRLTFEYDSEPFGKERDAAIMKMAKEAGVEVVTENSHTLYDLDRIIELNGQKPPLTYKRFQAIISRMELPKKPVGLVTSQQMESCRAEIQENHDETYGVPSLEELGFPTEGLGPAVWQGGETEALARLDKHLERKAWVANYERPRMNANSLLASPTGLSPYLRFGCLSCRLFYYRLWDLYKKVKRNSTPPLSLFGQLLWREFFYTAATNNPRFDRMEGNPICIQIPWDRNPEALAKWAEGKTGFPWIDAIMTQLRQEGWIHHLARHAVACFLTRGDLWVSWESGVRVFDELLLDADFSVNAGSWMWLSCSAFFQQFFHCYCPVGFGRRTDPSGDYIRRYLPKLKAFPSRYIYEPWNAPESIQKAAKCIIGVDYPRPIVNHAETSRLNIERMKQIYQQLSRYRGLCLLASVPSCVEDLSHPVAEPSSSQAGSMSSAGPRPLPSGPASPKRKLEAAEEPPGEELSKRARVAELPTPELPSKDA

[2] = Half life in db/db mouse at 30 mg/kg, po qd; type: ADME, organism-based; conditions: in vivo
[3] = test system: Mus musculus; assay: Unbound Cmax in db/db mouse at 30 mg/kg, po qd after 1 to 24 hrs; type: ADME, organism-based; conditions: in vivo
[4] = Kinetic solubility in simulated gastric fluid; type: physicochemical; conditions: read-out: Kinetic_solubility
[5] = MRT in db/db mouse at 30 mg/kg, po qd after 1 to 24 hrs; type: ADME, organism-based; conditions: in vivo
[6] = Total Cmax in db/db mouse at 30 mg/kg, po qd after 1 to 24 hrs; type: ADME, organism-based; design: dose 30 mg/kg, route oral; conditions: in vivo

Row | Compound | pEC50 [1] | other results
1 | O=C1c2ccccc2CCN1CC(O)Cn1c2ccc(F)cc2c2cc(F)ccc21 (stereo not drawn) | 5.87 | 
2 | CC1CN(CC(O)Cn2c3ccc(F)cc3c3cc(F)ccc32)C(=O)N1 (stereo not drawn) | 6.18 | half-life [2]: 2.58 h; fCmax [3]: 0.01 µM; solubility kinetic [4]: 181 µM (≈ 64.9 µg/mL); MRT [5]: 4.16 h; Cmax [6]: 557 nM
3 | O=C1CCc2ccccc2N1CC(O)Cn1c2ccc(F)cc2c2cc(F)ccc21 (stereo not drawn) | 5.13 | 
4 | CC1CNC(=O)N1CC(O)Cn1c2ccc(F)cc2c2cc(F)ccc21 (stereo not drawn) | 5.93 | 
5 | O=C1C(F)CCN1CC(O)Cn1c2ccc(F)cc2c2cc(F)ccc21 (stereo not drawn) |  | half-life [2]: 2.97 h; fCmax [3]: 0.03 µM; solubility kinetic [4]: 184 µM (≈ 66.7 µg/mL); MRT [5]: 3.27 h; Cmax [6]: 1010 nM
6 | CC1(C)CCCN(CC(O)Cn2c3ccc(F)cc3c3cc(F)ccc32)C1=O (stereo not drawn) | 6.33 | 
7 | CC1CC(=O)N(CC(O)Cn2c3ccc(F)cc3c3cc(F)ccc32)C1 (stereo not drawn) | 5.99 | 
8 | O=C1C2CC2CN1CC(O)Cn1c2ccc(F)cc2c2cc(F)ccc21 (stereo not drawn) | 6.61 | 
9 | CC(C)N1CCCN(CC(O)Cn2c3ccc(F)cc3c3cc(F)ccc32)C1=O (stereo not drawn) | 6.21 | 
10 | O=C1Cc2ccccc2N1CC(O)Cn1c2ccc(F)cc2c2cc(F)ccc21 (stereo not drawn) | 5.43 | 
11 | CC1CCN(CC(O)Cn2c3ccc(F)cc3c3cc(F)ccc32)C1=O (stereo not drawn) | 6.37 | 
12 | O=C1N(CC(O)Cn2c3ccc(F)cc3c3cc(F)ccc32)CCCC1(F)F (stereo not drawn) | 6.71 | 
13 | O=C1CCCN1CC(O)Cn1c2ccc(F)cc2c2cc(F)ccc21 (stereo not drawn) | 6.20 | half-life [2]: 2.95 h; fCmax [3]: 0.011 µM; solubility kinetic [4]: 148 µM (≈ 51.1 µg/mL); MRT [5]: 3.32 h; Cmax [6]: 415 nM
14 | CC1CCN(CC(O)Cn2c3ccc(F)cc3c3cc(F)ccc32)C(=O)C1 (stereo not drawn) | 6.89 | 
15 | O=C1CCC2CC2N1CC(O)Cn1c2ccc(F)cc2c2cc(F)ccc21 (stereo not drawn) | 6.25 | 
16 | CC1CCNC(=O)N1CC(O)Cn1c2ccc(F)cc2c2cc(F)ccc21 (stereo not drawn) | 6.13 | 
17 | O=C1N(CC(O)Cn2c3ccc(F)cc3c3cc(F)ccc32)CCN1c1ccccc1 (stereo not drawn) | 6.28 | 
18 | CC(C)N1CCN(CC(O)Cn2c3ccc(F)cc3c3cc(F)ccc32)C1=O (stereo not drawn) | 6.22 | 
19 | CC1CCN(CC(O)Cn2c3ccc(F)cc3c3cc(F)ccc32)C(=O)N1 (stereo not drawn) | 6.38 | 
20 | COC1CCCN(CC(O)Cn2c3ccc(F)cc3c3cc(F)ccc32)C1=O (stereo not drawn) | 6.48 | half-life [2]: 2.16 h; fCmax [3]: 0.007 µM; solubility kinetic [4]: 188 µM (≈ 72.9 µg/mL); MRT [5]: 2.68 h; Cmax [6]: 235 nM
21 | CC1CCC(=O)N1CC(O)Cn1c2ccc(F)cc2c2cc(F)ccc21 (stereo not drawn) | 6.70 | 
22 | CCC1CCN(CC(O)Cn2c3ccc(F)cc3c3cc(F)ccc32)C1=O (stereo not drawn) | 6.38 | 
23 | O=C1C2CCC(C2)N1CC(O)Cn1c2ccc(F)cc2c2cc(F)ccc21 (stereo not drawn) | 6.79 | half-life [2]: 2.14 h; fCmax [3]: 0.01 µM; solubility kinetic [4]: 168 µM (≈ 62.2 µg/mL); MRT [5]: 2.92 h; Cmax [6]: 551 nM
24 | O=C1COCCN1CC(O)Cn1c2ccc(F)cc2c2cc(F)ccc21 (stereo not drawn) | 6.35 | 
25 | O=C1C(c2ccccc2)CCN1CC(O)Cn1c2ccc(F)cc2c2cc(F)ccc21 (stereo not drawn) | 6.31 | 
26 | CC(C)C1CCN(CC(O)Cn2c3ccc(F)cc3c3cc(F)ccc32)C1=O (stereo not drawn) | 6.58 | 
27 | CS(=O)(=O)N(Cc1ccco1)CC(O)Cn1c2ccccc2c2ccccc21 (stereo not drawn) | 6.06 | 

Row | Compound | pEC50 [1] | other results
28 | CCN1CCN(CC(O)Cn2c3ccc(F)cc3c3cc(F)ccc32)C1=O (stereo not drawn) | 5.98 | 
29 | O=C1Cc2ccccc2CN1CC(O)Cn1c2ccc(F)cc2c2cc(F)ccc21 (stereo not drawn) | 4.82 | 
30 | O=C1N(CC(O)Cn2c3ccc(F)cc3c3cc(F)ccc32)CCC1(F)F (stereo not drawn) | 6.15 | 
31 | CCC1CCCN(CC(O)Cn2c3ccc(F)cc3c3cc(F)ccc32)C1=O (stereo not drawn) | 6.48 | 
32 | CN1CCN(CC(O)Cn2c3ccc(F)cc3c3cc(F)ccc32)C1=O (stereo not drawn) | 6.39 | 
33 | O=C1NCCCN1CC(O)Cn1c2ccc(F)cc2c2cc(F)ccc21 (stereo not drawn) | 6.73 | half-life [2]: 2.39 h; fCmax [3]: 0.045 µM; solubility kinetic [4]: 85.6 µM (≈ 30.8 µg/mL); MRT [5]: 2.98 h; Cmax [6]: 1020 nM
34 | CC(C)C1CCCN(CC(O)Cn2c3ccc(F)cc3c3cc(F)ccc32)C1=O (stereo not drawn) | 7.10 | 
35 | COC1CCC(=O)N(CC(O)Cn2c3ccc(F)cc3c3cc(F)ccc32)C1 (stereo not drawn) | 6.40 | 
36 | CC1(C)CCN(CC(O)Cn2c3ccc(F)cc3c3cc(F)ccc32)C1=O (stereo not drawn) | 6.79 | 
37 | CCN1CCCN(CC(O)Cn2c3ccc(F)cc3c3cc(F)ccc32)C1=O (stereo not drawn) | 6.30 | 
38 | CC1CCC(=O)N(CC(O)Cn2c3ccc(F)cc3c3cc(F)ccc32)C1 (stereo not drawn) | 6.65 | 
39 | O=C1C2CC2CCN1CC(O)Cn1c2ccc(F)cc2c2cc(F)ccc21 (stereo not drawn) | 6.78 | 
40 | O=C1OCCCN1CC(O)Cn1c2ccc(F)cc2c2cc(F)ccc21 (stereo not drawn) | 5.30 | 
41 | COC1CCN(CC(O)Cn2c3ccc(F)cc3c3cc(F)ccc32)C1=O (stereo not drawn) | 6.07 | 
42 | O=C1C(c2ccccc2)CCCN1CC(O)Cn1c2ccc(F)cc2c2cc(F)ccc21 (stereo not drawn) | 6.26 | 
43 | O=C1OCCN1CC(O)Cn1c2ccc(F)cc2c2cc(F)ccc21 (stereo not drawn) | 5.01 | 
44 | O=C1CCCCN1CC(O)Cn1c2ccc(F)cc2c2cc(F)ccc21 (stereo not drawn) | 6.72 | 
45 | CC1CCCN(CC(O)Cn2c3ccc(F)cc3c3cc(F)ccc32)C1=O (stereo not drawn) | 5.94 | 
46 | CN1CCCN(CC(O)Cn2c3ccc(F)cc3c3cc(F)ccc32)C1=O (stereo not drawn) | 6.14 | half-life [2]: 2.57 h; fCmax [3]: 0.002 µM; solubility kinetic [4]: 162 µM (≈ 60.4 µg/mL); MRT [5]: 3.51 h; Cmax [6]: 63 nM
47 | O=C1CC2CC2CN1CC(O)Cn1c2ccc(F)cc2c2cc(F)ccc21 (stereo not drawn) | 6.83 | 
48 | COC1CC(=O)N(CC(O)Cn2c3ccc(F)cc3c3cc(F)ccc32)C1 (stereo not drawn) | 5.94 | 
49 | O=C1N(CC(O)Cn2c3ccc(F)cc3c3cc(F)ccc32)CCCN1c1ccccc1 (stereo not drawn) | 6.77 | 
50 | O=C1C(F)CCCN1CC(O)Cn1c2ccc(F)cc2c2cc(F)ccc21 (stereo not drawn) | 7.10 | 
51 | CC1CCCC(=O)N1CC(O)Cn1c2ccc(F)cc2c2cc(F)ccc21 (stereo not drawn) | 6.27 | 
52 | CC1CNC(=O)N(CC(O)Cn2c3ccc(F)cc3c3cc(F)ccc32)C1 (stereo not drawn) | 6.08 | 
53 | O=C1c2ccccc2CN1CC(O)Cn1c2ccc(F)cc2c2cc(F)ccc21 (stereo not drawn) | 5.83 | 
54 | COC1CNC(=O)N(CC(O)Cn2c3ccc(F)cc3c3cc(F)ccc32)C1 (stereo not drawn) | 5.95 | 
